Assay results reported in ChEMBL document CHEMBL1649211, “Diversity of beta-lactamases produced by ceftazidime-resistant Pseudomonas aeruginosa isolates causing bloodstream infections in Brazil” (2009).

Legend:
Assay type in all cases: functional
Pseudomonas aeruginosa [1] = assay: Antimicrobial activity against beta-lactamase-producing Pseudomonas aeruginosa clinical isolate by agar dilution method
Pseudomonas aeruginosa [2] = assay: Antimicrobial activity against beta-lactamase-producing Pseudomonas aeruginosa clinical isolate assessed as susceptible isolate by agar dilution method in presence of beta-lactamase inhibitor Tazobactam
Pseudomonas aeruginosa [3] = assay: Antimicrobial activity against beta-lactamase-producing Pseudomonas aeruginosa clinical isolate assessed as susceptible isolates by agar dilution method
Pseudomonas aeruginosa [4] = assay: Antimicrobial activity against ESBL- and MBL-producing Pseudomonas aeruginosa isolated from patients with bloodstream infection assessed as resistant isolates by agar dilution method
Pseudomonas aeruginosa [5] = assay: Antimicrobial activity against Pseudomonas aeruginosa clinical isolate overexpressing AmpC gene assessed as resistant isolates by agar dilution method
Pseudomonas aeruginosa [6] = assay: Antimicrobial activity against ESBL- and MBL-producing and ceftazidime-resistant Pseudomonas aeruginosa isolated from patients with bloodstream infection assessed as resistant isolates by agar dilution method

| Compound | Activity (Pseudomonas aeruginosa [3]) [%] | Activity (Pseudomonas aeruginosa [6]) [%] | other results |
| --- | --- | --- | --- |
| CCN1CCN(C(=O)N[C@@H](C(=O)N[C@@H]2C(=O)N3[C@@H]2SC(C)(C)[C@@H]3C(=O)O)c2ccccc2)C(=O)C1=O [PIPERACILLIN] | 34.8 | – | MIC (Pseudomonas aeruginosa [1]): ≤ 16 µg/mL; Activity (Pseudomonas aeruginosa [2]): 39.5% |
| NCC[C@H](O)C(=O)N[C@@H]1C[C@H](N)[C@@H](O[C@H]2O[C@H](CN)[C@@H](O)[C@H](O)[C@H]2O)[C@H](O)[C@H]1O[C@H]1O[C@H](CO)[C@@H](O)[C@H](N)[C@H]1O [AMIKACIN] | 18.6 | – | – |
| CC(C)(O/N=C(\C(=O)N[C@@H]1C(=O)N2C(C(=O)[O-])=C(C[n+]3ccccc3)CS[C@H]12)c1csc(N)n1)C(=O)O [CEFTAZIDIME] | – | – | Activity (Pseudomonas aeruginosa [4]): 28%; Activity (Pseudomonas aeruginosa [5]): 9.3% |
| C[C@@H](O)[C@H]1C(=O)N2C(C(=O)O)=C(SCCNC=N)C[C@H]12 [IMIPENEM ANHYDROUS] | 18.6 | 82 | – |
| COLISTIN | 100 | – | – |
| C[C@@H](O)[C@H]1C(=O)N2C(C(=O)O)=C(S[C@@H]3CN[C@H](C(=O)N(C)C)C3)[C@H](C)[C@H]12 [MEROPENEM] | – | 95 | – |
